In one experiment the target is T1, jsGiq (Gαiqβ1γ2) (Homo sapiens, UniProt P63096, A31R/D193S/L194I/D337C/T340K/V342T/I344L/K345Q/D350E/G352N/F354V).
T1 construct: gene GNAI1; heterotrimer from High Five insect cells, His tag removed with HRV 3C
Description: GTPase-Glo luminescence assay. Type of experiment: biochemical. As to conditions: 2 uM G protein, 2 uM GTP stock mixed 1:1; 20 C; with and without JSR1-ATR6.11.

The target in experiment [1] is T2, hGi (Gαi1β1γ1 heterotrimer) (Homo sapiens, UniProt P63096).
T2 construct: gene GNAI1; human Galphai1 with N-terminal TEV-cleavable deca-His tag from E. coli BL21(DE3); Gbeta1gamma1 from transducin of bovine retinae
T2 sequence (P63096 2-354): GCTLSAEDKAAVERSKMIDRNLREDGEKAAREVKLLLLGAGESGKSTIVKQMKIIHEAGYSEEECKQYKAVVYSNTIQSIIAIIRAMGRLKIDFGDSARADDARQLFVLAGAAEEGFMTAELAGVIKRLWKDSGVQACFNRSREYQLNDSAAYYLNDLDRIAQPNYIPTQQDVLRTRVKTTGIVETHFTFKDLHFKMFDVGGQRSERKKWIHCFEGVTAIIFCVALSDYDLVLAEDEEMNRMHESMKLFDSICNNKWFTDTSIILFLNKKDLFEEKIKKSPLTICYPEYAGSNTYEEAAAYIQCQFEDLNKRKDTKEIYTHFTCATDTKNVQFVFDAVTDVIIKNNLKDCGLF
T2 sequence (P62871 2-340 partner): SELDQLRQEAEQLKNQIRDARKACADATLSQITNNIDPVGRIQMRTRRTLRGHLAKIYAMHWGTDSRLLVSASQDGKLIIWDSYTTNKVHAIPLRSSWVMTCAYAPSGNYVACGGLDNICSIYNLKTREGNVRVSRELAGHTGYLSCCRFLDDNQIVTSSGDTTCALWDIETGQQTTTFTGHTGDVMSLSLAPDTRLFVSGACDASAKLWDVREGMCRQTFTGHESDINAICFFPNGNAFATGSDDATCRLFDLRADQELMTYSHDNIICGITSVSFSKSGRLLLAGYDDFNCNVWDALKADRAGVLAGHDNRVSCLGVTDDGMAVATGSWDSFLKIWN
T2 sequence (P02698 2-71 partner): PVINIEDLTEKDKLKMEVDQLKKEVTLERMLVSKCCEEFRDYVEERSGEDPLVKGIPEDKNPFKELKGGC
Description: GTPase-Glo luminescence assay. The class given is biochemical. The settings on record: 2 uM G protein, 2 uM GTP stock mixed 1:1; 20 C; with and without JSR1-ATR6.11.

T1 sequence (P63096 2-354 A31R/D193S/L194I/D337C/T340K/V342T/I344L/K345Q/D350E/G352N/F354V): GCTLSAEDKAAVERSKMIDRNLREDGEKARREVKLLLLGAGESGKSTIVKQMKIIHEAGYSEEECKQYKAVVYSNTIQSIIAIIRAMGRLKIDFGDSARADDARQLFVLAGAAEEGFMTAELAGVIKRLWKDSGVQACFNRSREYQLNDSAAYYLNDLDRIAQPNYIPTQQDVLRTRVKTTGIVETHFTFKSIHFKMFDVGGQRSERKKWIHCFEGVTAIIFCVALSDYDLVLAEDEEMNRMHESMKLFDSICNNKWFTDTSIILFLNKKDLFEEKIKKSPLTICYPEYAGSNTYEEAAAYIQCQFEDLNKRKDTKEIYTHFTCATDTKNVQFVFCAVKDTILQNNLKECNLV
T1 sequence (P62873 2-340 partner): as the sequence (P62871 2-340 partner) above
T1 sequence (P59768 2-68 partner): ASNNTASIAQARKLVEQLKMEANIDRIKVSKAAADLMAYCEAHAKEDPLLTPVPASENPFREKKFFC

As for `Nc1nc2c(ncn2[C@@H]2O[C@H](COP(=O)(O)OP(=O)(O)OP(=O)(O)O)[C@@H](O)[C@H]2O)c(=O)[nH]1` [GTP], the GTP hydrolysis % result was “An in vitro activity assay showed that this chimera retains intrinsic GTPase activity” at jsGiq (Gαiqβ1γ2); “GTPase-Glo assay showing GTP depletion for hGi and jsGiq samples” in experiment [1].

These data come from PMC11484933, “Active state structures of a bistable visual opsin bound to G proteins” (Nature Communications, 2024).
